LC retention time data for 22 compounds are collected here from the RepoRT retention time repository (doi:10.1016/j.aca.2012.07.013).

The data set is described as follows: RP, 50 × 2.1 mm, 1.7 µm, 0.5 mL/min, estimated dead time 0.22 min; A: 98% water + 2% acetonitrile + 0.1% formic acid, pH 3; B: 2% water + 98% acetonitrile + 0.1% formic acid, pH 3; gradient (min/%B) 0/0 0.5/0 4/60 8/100 9/100 9.2/0 10/0. Conditions: stereoisomer not certain.
`CCC=CCC=CCC=CCC=CCC=CCC=CCCC(=O)OC(CO)COP(=O)(O)OCCN` (configuration not stated) [LPE (0:0/22:6(4Z,7Z,10Z,13Z,16Z,19Z))]: the LC retention time was 4.71 min. For `CC(CCC(=O)NCCS(=O)(=O)O)C1CCC2C3C(O)CC4CC(O)CCC4(C)C3CCC12C` (configuration not stated) [taurochenodeoxycholic acid (TCDCA)], the LC retention time was 3.45 min. The figure for `CC(CCC(=O)NCC(=O)O)C1CCC2C3C(O)CC4CC(O)CCC4(C)C3CC(O)C12C` (configuration not stated) [glycocholic acid (GCA)] is 3.36 min; for `CCCCCC=CCC=CCC=CCCCCCCC(=O)OCC(O)COP(=O)(O)OCCN` (configuration not stated) [LPE (20:3)] it is 4.71 min. With `CCC=CCC=CCC=CCC=CCCCCCCC(=O)OC(CO)COP(=O)(O)OCCN` (configuration not stated) [LPE (0:0/20:4(8Z,11Z,14Z,17Z))] the figure was 4.74 min; with `CCCCCCCCCCCCCCC(=O)OCC(O)COP(=O)([O-])OCC[N+](C)(C)C` (configuration not stated) [LPC (15:0)], 4.67 min. As for `c1ccc(CSSCc2ccccc2)cc1` [dibenzyl disulfide], the LC retention time was 2.39 min. The figure for `CCCCCCCCCCCCCCCC(=O)OCC(O)COP(=O)([O-])OCC[N+](C)(C)C` (configuration not stated) [LPC (16:0)] is 4.98 min. With `O=c1cc2oc3ccccc3oc-2cc1=O` [dibenzo[1,4]dioxin-2,3-dione] the figure was 2.57 min. With `Oc1ccc(C(c2ccc(O)cc2)(C(F)(F)F)C(F)(F)F)cc1` [bisphenol AF], the LC retention time was 0.397 min. With `CC(CCC(=O)NCC(=O)O)C1CCC2C3CCC4CC(O)CCC4(C)C3CC(O)C12C` (configuration not stated) [glycodeoxycholic acid (GDCA)] the figure was 3.78 min. Consider `CC(CCC(=O)NCC(=O)O)C1CCC2C3C(O)CC4CC(O)CCC4(C)C3CCC12C` (configuration not stated) [glycochenodeoxycholic acid (GCDCA)], for which the LC retention time is 3.78 min. The figure for `CC(CCC(=O)NCCS(=O)(=O)O)C1CCC2C3C(O)CC4CC(O)CCC4(C)C3CC(O)C12C` (configuration not stated) [taurocholic acid (TCA)] is 3.08 min; for `CCCCCCCCCCCCCCCCCC(=O)OCC(O)COP(=O)([O-])OCC[N+](C)(C)C` (configuration not stated) [LPC (18:0)] it is 5.64 min. The figure for `CCC=CCC=CCC=CCC=CCC=CCC=CCCC(=O)OCC(O)COP(=O)([O-])OCC[N+](C)(C)C` (configuration not stated) [LPC (22:6)] is 4.72 min; for `CCC=CCC=CCC=CCC=CCCCCCCC(=O)OCC(O)COP(=O)(O)OCCN` (configuration not stated) [LPE (20:4(8Z,11Z,14Z,17Z)/0:0)] it is 4.74 min; for `CCCCCCCCCCCCCCCCCCOCC(O)COP(=O)(O)OCC(N)C(=O)O` (configuration not stated) [PS (O-18:0/0:0)] it is 4.52 min.

Turning to `Nc1ccc(C(F)(F)F)cc1` [4-trifluoro methylaniline], the LC retention time is 0.383 min. With `CCCCCCCCCCCCCC=CC(O)C([NH3+])COP(=O)([O-])O` (configuration not stated) [sphingosine 1-phosphate] the figure was 4.36 min; with `CCCCCCCCCCCCCCCCC(=O)OCC(O)COP(=O)([O-])OCC[N+](C)(C)C` (configuration not stated) [LPC (17:0)], 5.3 min.

In the case of `CC(CCC(=O)NCC(=O)O)C1CCC2C3C(O)CC4CC(OS(=O)(=O)O)CCC4(C)C3CCC12C` (configuration not stated) [glycochenodeoxycholate-3-sulfate], the LC retention time was 3.38 min. In the case of `CCCCCC=CCC=CCC=CCC=CCCCC(=O)OC(CO)COP(=O)(O)OCCN` (configuration not stated) [LPE (0:0/20:4(5Z,8Z,11Z,14Z)], the LC retention time is 4.74 min.
